Experiments:
[1] = biological target: T1, full length (408 amino acids) human β3-adrenergic receptor (Homo sapiens, UniProt P13945); assay: Functional activity (adenylyl cyclase) at full-length human β3 receptor expressed in CHO cells; type: biochemical
T1 construct: CHO cells expressing the full length human β3 receptor are harvested; expressed in transfected cells
Description: Culture medium was removed and cells were washed in phosphate-buffered saline and then harvested in 25 mM HEPES (pH 8.0) buffer containing 2 mM MgCl2 and 1 mM EDTA. Cell were homogenized and centrifuged at 48,000×g for 15 min. to obtain crude membranes. Membrane pellets were resuspended and used directly or frozen at -80° until used. […] Membranes (5-15 μg of protein) were preincubated at 4°, in a volume of 40 μl, with the specified drugs for 15 min. Adenylyl cyclase reactions were initiated by addition of substrate mixture and were terminated after 30 min at 30°. […] Concentration-response data were analyzed by nonlinear regression analysis with a one-site mass action equation for transfected CHO cells (Enzfitter, Elsevier Biosoft).
Chinese hamster ovary (CHO) cells are transfected with constructs based upon the expression vector pRc/CMV. […] Transfection of CHO cells with DNA constructs is accomplished by the CaPO4 -DNA precipitation method as described in Maniatis et al., ibid. To obtain cells that stably express these DNA constructs, transfected cells are selected based upon their resistance to G418, which is conferred by the neomycin-resistance gene contained in pRc/CMV. Cells that survive selective conditions (e.g. 800 μg/ml G418) are then cloned by limiting dilution.
CHO cells expressing the full length human β3 receptor are harvested and membranes prepared as described by Granneman et al., ibid. Adenylyl cyclase activity is then determined in response to various agents known or thought to interact with the β3 receptor, using the method of Salomon, ibid. Agonists are identified by the ability to increase cyclic AMP generation above basal levels. Antagonists are identified by their ability to decrease adenylyl cyclase activity that is stimulated by 100 nM isoproterenol.

[2] = test system: truncated (402 amino acids) human β3-adrenergic receptor; details: cited from earlier work; for inhibition at the truncated receptor: Emorine et al., 1989
[3] = test system: adipose tissue-specific genes; details: Kletzien et al., 1992; cited from earlier work

T1 sequence (P13945 whole entry): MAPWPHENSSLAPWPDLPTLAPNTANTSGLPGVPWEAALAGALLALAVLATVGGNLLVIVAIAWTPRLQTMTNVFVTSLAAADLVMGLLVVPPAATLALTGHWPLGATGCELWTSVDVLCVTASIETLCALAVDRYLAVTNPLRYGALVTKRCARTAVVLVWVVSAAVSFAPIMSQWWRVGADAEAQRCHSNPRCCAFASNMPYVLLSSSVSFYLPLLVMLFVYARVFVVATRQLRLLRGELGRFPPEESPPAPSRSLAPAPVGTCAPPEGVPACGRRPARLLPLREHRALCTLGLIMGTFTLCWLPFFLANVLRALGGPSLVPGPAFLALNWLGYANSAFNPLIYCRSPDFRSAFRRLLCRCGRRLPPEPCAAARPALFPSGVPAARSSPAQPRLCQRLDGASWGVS

CC(Cc1ccc(OCC(=O)O)cc1)NCC(O)c1cccc(Cl)c1 (stereo not shown) [BRL 37344]
agonist character ([1]; full length receptor): partial agonists | activation potency ([1]; full-length receptor): relatively low potency | agonist character [2]: partial agonists

CC(C)NCC(O)COc1cccc2ccccc12 (stereo not shown) [Propranolol]
inhibition at the truncated receptor [2]: essentially inactive

CC1(COc2ccc(CC3SC(=O)NC3=O)cc2)CCCCC1 (stereo not shown) [Cigilazone]
effect on expression of adipose tissue-specific genes [3]: augment the expression of adipose tissue-specific genes

C=CCc1ccccc1OCC(O)CNC(C)C (stereo not shown) [alprenolol]
potency of inhibition of the full length receptor (antagonists) ([1]; full length receptor): submicromolar potencies | inhibition at the truncated receptor [2]: essentially inactive
